Values of other authors in patent US20240148037A1, “STEVIOL GLYCOSIDE FORMULATIONS FOR FOOD AND BEVERAGES” (SWEEGEN, INC., priority 2019, published 2024).

Conditions: relative to sucrose

Molecule | times sweeter than sucrose
C=C1C[C@@]23CC[C@H]4[C@@](C)(CCC[C@@]4(C)C(=O)O[C@@H]4O[C@H](CO)[C@@H](O)[C@H](O)[C@H]4O)[C@@H]2CC[C@]1(O[C@@H]1O[C@H](CO)[C@@H](O)[C@H](O)[C@H]1O[C@@H]1O[C@H](CO)[C@@H](O)[C@H](O)[C@H]1O)C3 [stevioside] | 100-150 times
Rebaudioside C | 40-60 times
C=C1C[C@@]23CC[C@H]4[C@@](C)(CCC[C@@]4(C)C(=O)O[C@@H]4O[C@H](CO)[C@@H](O)[C@H](O)[C@H]4O)[C@@H]2CC[C@]1(O[C@@H]1O[C@H](CO)[C@@H](O)[C@H](O)[C@H]1O[C@@H]1O[C@@H](C)[C@H](O)[C@@H](O)[C@H]1O)C3 [Dulcoside A] | about 30 times
